# Legend:
# [1] = system: T cell avatar A_4_2 (Jurkat expressing TCR from human islet-infiltrating CD4+ T cell, Donor A); assay: T cell avatar NanoLuciferase response to synthetic peptide; format: cell-based; conditions: highest concentration tested 20 μM
# Source text: Briefly, we used CRISPR/Cas9 to generate a variant of the human T cell line Jurkat that was deficient in TRAC, TRBC, and CD4. […] This parental Jurkat line was then transduced with the TRAV and TRBV constructs that express the TRAV and TRBV genes that form the TCR expressed by human islet-infiltrating CD4^+ T cells. […] Transduced cells expressing CD3 and TCR were purified by flow cytometry or magnetic bead enrichment. Briefly, cells were resuspended in viral supernatant at 1–2 × 10^6/ml with 5 μg/ml polybrene. Cells were centrifuged at 1,200 rpm (300 g) for 60 min at room temperature, then diluted 1:1 in fresh medium and incubated overnight at 37 °C, 5% CO2. […] Compensation settings were determined using single-color controls. […]
# The HIP super-pool bacteria were cultured from frozen glycerol stock in LB media with antibiotics at 37 °C with agitation 210 rpm. […] After 22–24 h of coculture, the NanoLuciferase activity was measured using the Nano-Glo Luciferase assay (Promega) according to the manufacturer's instructions. Luminescence was measured on a plate reader (Enspire Perkin Elmer). Responses are reported as the Δluciferase, which is calculated by subtracting the average background (no antigen) luciferase reading measured in the negative control cultures from the response measured in the other treatments. […]
# T cell avatar A_4_7 [2] = assay: as above; format: cell-based, human; conditions: highest concentration tested 20 μM
# Source text: (§1) Briefly, we used CRISPR/Cas9 to generate a variant of the human T cell line Jurkat that was deficient in TRAC, TRBC, and CD4. […] This parental Jurkat line was then transduced with the TRAV and TRBV constructs that express the TRAV and TRBV genes that form the TCR expressed by human islet-infiltrating CD4^+ T cells. […] Transduced cells expressing CD3 and TCR were purified by flow cytometry or magnetic bead enrichment. Briefly, cells were resuspended in viral supernatant at 1–2 × 10^6/ml with 5 μg/ml polybrene. Cells were centrifuged at 1,200 rpm (300 g) for 60 min at room temperature, then diluted 1:1 in fresh medium and incubated overnight at 37 °C, 5% CO2. Flow cytometry was performed on a Becton Dickinson LSR Fortessa to determine the proportion of CD3 and TCR expressing cells. The following antihuman mAbs were used for FACS staining: CD3-PE (UCHT1, BD Biosciences), and anti-TCRαβ-AF647 (IP26, BioLegend). Cells were stained with the appropriate mAb in phosphate buffered saline (PBS) 0.1% foetal bovine serum (FBS) for 20 min on ice, then washed twice. Dead cells were excluded by propidium iodide staining. Compensation settings were determined using single-color controls. TCR and CD3 expressing cells were purified by FACS or using REALease CD3 Microbead Kit (Miltenyi) following the manufacturer's instructions. All Jurkat T cell avatars used were >85% CD3^+/TCR^+.
# (§2) The HIP super-pool bacteria were cultured from frozen glycerol stock in LB media with antibiotics at 37 °C with agitation 210 rpm. The overnight HIP-expressing bacteria cultures were diluted to an OD600 of 0.06 and grown in 48-well plates in 200 μl LB medium with antibiotics until an OD600 of 0.5 was reached. […] After 22–24 h of coculture, the NanoLuciferase activity was measured using the Nano-Glo Luciferase assay (Promega) according to the manufacturer's instructions. Luminescence was measured on a plate reader (Enspire Perkin Elmer). Responses are reported as the Δluciferase, which is calculated by subtracting the average background (no antigen) luciferase reading measured in the negative control cultures from the response measured in the other treatments.
# (§3) Peptides (Genscript) were dissolved in dimethyl sulfoxide (DMSO) to 5.0 mM, aliquoted and stored at −80 °C. The CD4^+ T cell avatars' responses to peptides were measured as described above; except synthetic peptides were used as antigens, instead of E. coli and the antigen/EBV cells were not cultured overnight before the T cell avatars were added. A T cell's response to antigen was measured as luciferase activity using the Nano-Glo Luciferase assay system (Promega) according to the manufacturer's instructions (as above). The HLA-restriction of the HIP-specific CD4^+ T cell clones was determined in a two-step process as described previously ([10]). […]
# T cell avatar A_4_8 [3] = assay: as above; format: cell-based, human; conditions: highest concentration tested 20 μM
# Source text: as §1, §2, §3
# [4] = system: HIP-specific T cell avatars; assay: T cell avatar NanoLuciferase response, panel of HIP-specific avatars; format: cell-based, human; conditions: nine HIP-specific avatars; highest concentration 20 μM; weak left-hand response in 3 of 9 avatars; very weak C-peptide response in three cases
# Method: as §2, with “reached. Protein expression was induced by adding isopropyl β-D-thiogalactopyranoside (2.0 mM, Sigma). Incubation was continued for another 4 h at 37 °C in a shaking incubator.” for “reached.”
# Peptides (Genscript) were dissolved in dimethyl sulfoxide (DMSO) to 5.0 mM, aliquoted and stored at −80 °C. The CD4^+ T cell avatars' responses to peptides were measured as described above; except synthetic peptides were used as antigens, instead of E. coli and the antigen/EBV cells were not cultured overnight before the T cell avatars were added. […] The T cell avatar's responses were measured as above. […]
# [5] = system: T cell avatar A_4_2 (Jurkat expressing TCR from human islet-infiltrating CD4+ T cell, Donor A); conditions: previous characterisation, clone A1.9 (A_4_2); ref [5, 34]; cited from earlier work
# Source text: (§4) Supplement pgae491_supplementary_data.docx, table 6: Supplementary Table 6. Summary of previous characterisation of human islet-infiltrating CD4^+ T cells. | column: HLA-restriction
# T cell avatar A_4_7 [6] = conditions: previous characterisation, clone A5.5 (A_4_7); ref [5]; cited from earlier work
# Source text: as §4
# T cell avatar A_4_8 [7] = conditions: previous characterisation, clone A5.8 (A_4_8); ref [5]; cited from earlier work
# Source text: as §4
# T cell avatar A_4_5 = conditions: previous characterisation, clone A4.5 (A_4_5); ref [15, 34]; cited from earlier work
# Source text: as §4
# T cell avatar A_4_6 = conditions: previous characterisation, clone A3.10 (A_4_6); ref [15, 34]; cited from earlier work
# Source text: as §4
# T cell avatar K_4_161 = assay: T cell avatar NanoLuciferase response to synthetic peptide; format: cell-based, human
# Source text: as §1, §2, §3
substance,measurement,setting,value
"EAEDLQVGQVELGGGPGAGSLQPLALEGSLQ [C-peptide, full-length proinsulin C-peptide]",response to full-length C-peptide (Δluciferase),[1],very weak
same,response to full-length C-peptide (Δluciferase),T cell avatar A_4_7 [2],very weak
same,response to full-length C-peptide (Δluciferase),T cell avatar A_4_8 [3],very weak
same,T cell avatar response (Δluciferase) to native peptide,[4],did not respond
VELGGGPGA,HLA-restriction,[5],HLA-DQ8
same,HLA-restriction,T cell avatar A_4_7 [6],HLA-DQ8
same,HLA-restriction,T cell avatar A_4_8 [7],HLA-DQ8
"GQVELGGG-NAVEVLK [HIP-6, previously reported C-peptide-IAPP2 HIP]",HLA-restriction,T cell avatar A_4_5,HLA-DQ8
same,HLA-restriction,T cell avatar A_4_6,HLA-DQ8
"REAEDLQVG-VCGERGF [HIP-K, hybrid insulin peptide formed by fusion of proinsulin fragments]",HLA restriction,"T cell avatar K_4_161; blocking mAbs and single-HLA APC lines, peptide 1.0 μM",DQ8
same,EC50,"T cell avatar K_4_161; synthetic peptide titration, autologous EBV B cells, NanoLuciferase, triplicate",> 20 µM

# From paper PMC11565411, “Proinsulin C-peptide is a major source of HLA-DQ8 restricted hybrid insulin peptides recognized by human islet-infiltrating CD4^+ T cells” (PNAS Nexus, 2024)
